Tests used:
HPK1 [1] = target: T1, HPK1 (Homo sapiens, UniProt Q92918); assay: Western blot analysis of endogenous HPK1 level in Jurkat T cells; format: cell-based; details: for reducing HPK1 protein levels: characterization of exemplary degraders (FIGS. 1-14)
T1 construct: endogenous in cells; host or cells: Jurkat T cells

CD4+ T cells = assay: CD28-independent IL-2 production by CD4+ T cells; format: cell-based; details: fixed concentration of plate-bound antibody, varying concentrations of soluble anti-CD28 mAb (FIG. 6)
primary murine T cells = assay: IL-2 production by primary murine T cells; format: cell-based, mouse
Procedure: (§1) EXAMPLE 348. Several compounds according to the present invention employing the indolin-2-one HPK1 binding base, (which henceforth shall be referred to as the HC58 series, the HC65 series and the HC75 series) were assessed on their abilities to degrade HPK1 and produce an elevated IL-2 response profile upon stimulation by anti-CD3- and anti-CD28-mAb-mediated (CD3XCD28) stimulation (FIGS. 1-4). The elevated IL-2 response profile induced by TCR engagement after exposure to HC58 series of HPK1 degraders is shown in FIG. 1. […] A select sub-set of the lead HPK1 degraders from the HC58 series were further characterized to determine whether they could degrade primary mouse T cells.

[2] = tested on: CD4+ primary murine T cells; assay: CD28-independent IL-2 production by CD4+ primary murine T cells (IL-2 ELISA); format: cell-based, mouse; details: 500 nM, plate-bound anti-CD3 mAb 5 μg/mL, varying soluble anti-CD28 mAb
Procedure: EXAMPLE 34. I was observed that HPK1^−/− T cells, unlike their wild type counterparts, could readily produce IL-2 in response to CD3 □ crosslinking alone (data not shown). To assess whether HPK1 degraders could confer the same ability to produce IL-2 in a CD28-independent manner, CD4^+ primary murine T cells prepared as described in FIG. 5 were treated with 500 nM of HC58-75 HPK1 degrader or DMSO or Pomalidomide as controls. Their abilities to produce IL-2 in response a fixed concentration of plate-bound anti-CD3[…] mAb (5 μg/mL) in conjunction with varying soluble concentration of anti-CD28 mAb was then assessed.

HPK1 [3] = target: T2, HPK1 (Mus musculus, UniProt P70218); assay: HPK1 degradation in primary mouse T cells; format: cell-based; details: 300 nM
T2 construct: HPK1 degraders could effectively degrade endogenous HPK1 in murine T cells; endogenous in cells; host or cells: primary mouse T cells
T2 sequence (P70218 1-827): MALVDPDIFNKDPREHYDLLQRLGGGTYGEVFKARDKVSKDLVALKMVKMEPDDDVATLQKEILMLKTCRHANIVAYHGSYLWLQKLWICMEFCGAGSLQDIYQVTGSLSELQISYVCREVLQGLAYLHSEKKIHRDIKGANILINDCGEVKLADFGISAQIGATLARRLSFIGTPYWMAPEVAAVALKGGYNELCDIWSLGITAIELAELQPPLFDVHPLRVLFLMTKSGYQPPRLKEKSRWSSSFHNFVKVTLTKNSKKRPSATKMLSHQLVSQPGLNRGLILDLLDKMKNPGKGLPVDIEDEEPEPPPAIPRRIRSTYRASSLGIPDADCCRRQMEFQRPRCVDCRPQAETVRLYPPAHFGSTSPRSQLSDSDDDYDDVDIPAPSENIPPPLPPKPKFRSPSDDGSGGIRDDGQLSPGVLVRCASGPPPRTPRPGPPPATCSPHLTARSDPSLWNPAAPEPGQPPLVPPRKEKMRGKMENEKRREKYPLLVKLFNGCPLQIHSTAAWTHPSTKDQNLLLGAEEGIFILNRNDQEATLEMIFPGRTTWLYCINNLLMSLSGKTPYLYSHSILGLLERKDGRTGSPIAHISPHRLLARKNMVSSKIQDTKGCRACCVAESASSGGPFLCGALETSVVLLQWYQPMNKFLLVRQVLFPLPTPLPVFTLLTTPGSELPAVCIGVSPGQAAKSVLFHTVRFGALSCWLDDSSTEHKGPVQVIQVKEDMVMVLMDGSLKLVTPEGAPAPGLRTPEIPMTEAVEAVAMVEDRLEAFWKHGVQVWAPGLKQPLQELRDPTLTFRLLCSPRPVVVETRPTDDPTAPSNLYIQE
Procedure: as §1
EXAMPLE 353. HPK1 is expressed in all hematopoietic cells examined to date, including T cells, B cells, dendritic cells and neutrophils. Because the breath of therapeutic approaches might involve the use of Chimeric Antigen Receptor (CAR) T cells, dendritic cells, TCR transgenic T cells and Tumor Infiltrating Lymphocytes (TILs), selected HPK1 degraders were evaluated to determine whether they could degrade HPK1 effectively in some of these cell types. […] Potent degradation of HPK1 by HPK1 degraders was also observed in the human DC1 dendritic cells.

Jurkat T cells = assay: IL-2 production by Jurkat cells on CD3XCD28 stimulation (IL-2 ELISA); format: cell-based, human; details: wider ranges of compound concentrations
Procedure: as §1
EXAMPLE 351. […] Furthermore, compound HC58-78 and HC90-50 were also assessed for their abilities to enhance the CD3XCD28-induced IL-2 response by primary human PBMC (FIG. 10).
For the synthesis of intermediates and examples (1-89) below, HPLC spectra for all compounds were acquired using an Agilent 1200 Series system with DAD detector. […] Clone E6-1 cells is a preferred cellular platform for studying T cell activation in response to T cell receptor engagement because it produces the cytokine IL-2, which could be used as proxy readout for the level of T cell activation. […]

human PBMCs = assay: Intracellular IFNγ and TNFα staining of human PBMC (FACS); format: cell-based; details: in combination with blinatumomab
From the text: EXAMPLE 355. One of the mechanisms employed by PBMC to kill their target cells is by releasing IFNγ and TNFα production. These inflammatory cytokines are known have potent cytolytic effects on cancer cells. […] Mediated PBMC killing of the Raji cells is most evident at PBMC:Raji ratio of 5:1 (FIG. 13).
To determine the number of CD19^+ Raji cells killed by human PBMC that were activated by the Blinatumomab-mediated activation, we used CountBright cell counting beads to estimate the number of cells remained after 72 hours of co-culturing of PBMC and Raji. As for the intracellular staining of the TNFα and the IFNγ, the standard para-formaldehyde-based “fix and perm” procedure was used in order to quantitate the amount of intracellular cytokine trapped inside the cells by brefeldin A. FACS analysis of stained cells is performed by BD's LSR II FACS.

T1 sequence (Q92918 whole entry): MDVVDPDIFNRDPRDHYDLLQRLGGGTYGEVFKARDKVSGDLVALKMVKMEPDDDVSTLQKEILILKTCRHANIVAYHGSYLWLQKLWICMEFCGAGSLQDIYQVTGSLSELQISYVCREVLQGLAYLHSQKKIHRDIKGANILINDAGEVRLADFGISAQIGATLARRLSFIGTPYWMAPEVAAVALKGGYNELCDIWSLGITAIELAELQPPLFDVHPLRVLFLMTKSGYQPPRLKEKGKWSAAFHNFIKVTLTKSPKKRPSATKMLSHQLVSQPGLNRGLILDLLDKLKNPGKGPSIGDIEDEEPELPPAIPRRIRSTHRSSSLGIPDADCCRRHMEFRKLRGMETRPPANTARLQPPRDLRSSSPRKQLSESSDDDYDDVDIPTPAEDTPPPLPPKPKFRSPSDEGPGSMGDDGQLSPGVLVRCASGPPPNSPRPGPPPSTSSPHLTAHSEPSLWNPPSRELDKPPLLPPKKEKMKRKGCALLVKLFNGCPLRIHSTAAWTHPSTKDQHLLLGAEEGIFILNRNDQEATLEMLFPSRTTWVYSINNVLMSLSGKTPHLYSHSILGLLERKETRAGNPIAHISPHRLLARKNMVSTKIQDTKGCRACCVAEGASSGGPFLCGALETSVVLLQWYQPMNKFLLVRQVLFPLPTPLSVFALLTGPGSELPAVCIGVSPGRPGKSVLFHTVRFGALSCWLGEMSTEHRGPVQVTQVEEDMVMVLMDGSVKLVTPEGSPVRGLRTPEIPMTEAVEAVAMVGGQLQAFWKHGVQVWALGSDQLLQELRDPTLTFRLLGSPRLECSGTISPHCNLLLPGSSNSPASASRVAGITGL

For `Cc1[nH]c(/C=C2\C(=O)Nc3ccc(F)cc32)c(C)c1C(=O)NCCCN1CCN(C(=O)CCCCNc2cccc3c2C(=O)N(C2CCC(=O)NC2=O)C3=O)CC1` (stereo not shown) [HC58-38, (Z)—N-(3-(4-(5-((2-(2,6-dioxopiperidin-3-yl)-1,3-dioxoisoindolin-4-yl)amino)pentanoyl)piperazin-1-yl)propyl)-5-((5-fluoro-2-oxoindolin-3-ylidene)methyl)-2,4-dimethyl-1H-pyrrole-3-carboxamide], the “reducing HPK1 protein levels” value (HPK1 [1]) was “especially effective in reducing HPK1 protein levels”.

With `Cc1[nH]c(/C=C2\C(=O)Nc3ccc(F)cc32)c(C)c1C(=O)NCCCN1CCN(CC(=O)NCCCCCNc2cccc3c2C(=O)N(C2CCC(=O)NC2=O)C3=O)CC1` (stereo not shown) [HC58-75, (Z)—N-(3-(4-(2-((5-((2-(2,6-dioxopiperidin-3-yl)-1,3-dioxoisoindolin-4-yl)amino)pentyl)amino)-2-oxoethyl)piperazin-1-yl)propyl)-5-((5-fluoro-2-oxoindolin-3-ylidene)methyl)-2,4-dimethyl-1H-pyrrole-3-carboxamide] the “endogenous level of HPK1” value (HPK1 [1]; Jurkat T cells, multiple day post exposure (FIG. 3)) was “could reduce the endogenous level of HPK1”, the “reducing HPK1 protein levels” value (HPK1 [1]) was “especially effective in reducing HPK1 protein levels” and the “CD28-independent IL-2 production” value (CD4+ T cells) was “CD28-independent IL-2 production”. The “IL-2 production compared with the DMSO-treated counterpart” value (primary murine T cells) was “produced more IL-2 than the DMSO-treated counterpart” and the “IL-2 production without CD28 co-receptor engagement” value [2] was “could produce IL-2 without the help of CD28 co-receptor engagement”.

With `Cc1[nH]c(/C=C2\C(=O)Nc3ccc(F)cc32)c(C)c1C(=O)NCCCN1CCN(CC(=O)NCCCCCCNc2cccc3c2C(=O)N(C2CCC(=O)NC2=O)C3=O)CC1` (stereo not shown) [HC58-76, (Z)—N-(3-(4-(2-((6-((2-(2,6-dioxopiperidin-3-yl)-1,3-dioxoisoindolin-4-yl)amino)hexyl)amino)-2-oxoethyl)piperazin-1-yl)propyl)-5-((5-fluoro-2-oxoindolin-3-ylidene)methyl)-2,4-dimethyl-1H-pyrrole-3-carboxamide] the “reducing HPK1 protein levels” value (HPK1 [1]) was “especially effective in reducing HPK1 protein levels” and the “degradation of HPK1 protein in primary T cells compared with Jurkat T cells” value (HPK1 [3]) was “could degrade more HPK1 protein in primary T cells than in Jurkat T cells”.

For `COc1cccc(F)c1-c1ncc2[nH]nc(-c3ccc(N4CCN(C(=O)CCNc5cccc6c5C(=O)N(C5CCC(=O)NC5=O)C6=O)CC4)cc3)c2n1` (stereo not shown) [HC90-50, 2-(2,6-dioxopiperidin-3-yl)-4-((3-(4-(4-(5-(2-fluoro-6-methoxyphenyl)-1H-pyrazolo[4,3-d]pyrimidin-3-yl)phenyl)piperazin-1-yl)-3-oxopropyl)amino)isoindoline-1,3-dione], the “reducing HPK1 protein levels” value (HPK1 [1]) was “especially effective in reducing HPK1 protein levels”, the “IL-2 response profile, rank within the HC90 series” value (Jurkat T cells) was “top two compounds from the HC90 series” and the “percentage of human PBMCs that express high level of IFNγ and TNFα” value (human PBMCs) was “significantly increased”.

With `COc1cccc(F)c1-c1ncc2[nH]nc(-c3ccc(N4CCN(C(=O)CCCNc5cccc6c5C(=O)N(C5CCC(=O)NC5=O)C6=O)CC4)cc3)c2n1` (stereo not shown) [HC90-51, 2-(2,6-dioxopiperidin-3-yl)-4-((4-(4-(4-(5-(2-fluoro-6-methoxyphenyl)-1H-pyrazolo[4,3-d]pyrimidin-3-yl)phenyl)piperazin-1-yl)-4-oxobutyl)amino)isoindoline-1,3-dione] the “reducing HPK1 protein levels” value (HPK1 [1]) was “especially effective in reducing HPK1 protein levels” and the “IL-2 response profile, rank within the HC90 series” value (Jurkat T cells) was “top two compounds from the HC90 series”.

Reference: patent US12465648B2, “Heterobifunctional compounds as degraders of HPK1” (ICAHN SCHOOL OF MEDICINE AT MOUNT SINAI, priority 2019, dated 2025)
